Data as given in patent publication US6858622B2, “Cycloalkano-indole and -azaindole derivatives” (Bayer Aktiengesellschaft, priority 1994, dated 2005).

Legend:
[1] = test system: VLDL secretion; assay: Determination of the VLDL secretion in vivo in the hamster (Triton WR-1339 triglyceride rise); design: species or system golden hamsters; settings: Mesocricetus auratus, po, VLDL secretion measured as triglyceride rise after Triton WR-1339
Procedure: 2. Determination of the VLDL Secretion In Vivo in the Hamster
The effect of the test substances on VLDL secretion in vivo is investigated in the hamster. To do this, golden hamsters are anaesthetized with Ketaset (83 mg/kg s.c.) and Nembutal (50 mg/kg i.p.) after premedication with atropine ([…] s.c.). When the animals have become reflex-free, the jugular vein is exposed and cannulated. 0.25 ml/kg of a 20% strength solution of Triton WR-1339 in physiological saline solution is then administered. This detergent inhibits the lipoprotein lipase and thus leads to a rise in the triglyceride level as a result of a lack of catabolism of secreted VLDL particles. This triglyceride rise can be used as a measure of the VLDL secretion rate.
Blood is taken from the animals before and also one and two hours after administration of the detergent by puncture of the retroorbital venous plexus. […] The triglyceride concentration in the serum thus obtained is determined with the aid of a modified commercially available enzyme test (Merckotest® triglyceride No. 14354). […] The optical density is then determined at a wavelength of 492 nm in an automatic plate-reading apparatus (SLT Spectra). […] The triglyceride concentration contained in the samples is determined with the aid of a standard curve measured in parallel. […]

[2] = test system: release of ApoB-100-associated lipoproteins from HepG2 cells; assay: Inhibition of the release of ApoB-100-associated lipoproteins from liver cells (HepG2, anti-LDL immunoassay); format: cell-based; settings: Homo sapiens; substance concentration at which light absorption at 450 nm (ApoB-100-associated particles in HepG2 supernatant) is inhibited by 50% vs solvent control
Procedure: I. Inhibition of the Release of ApoB-100-Associated Lipoproteins
The test for detecting the inhibition of the release of ApoB-100-associated lipoproteins from liver cells was carried out in vitro using cultured liver cells, preferably using cells of the human line HepG2. These cells are cultured under standard conditions in medium for the culture of eukaryotic cells, preferably in RPMI 1640 with 10% foetal calf serum. HepG2 cells synthesize and secrete into the culture supernatant ApoB-100-associated lipoprotein particles which in principle are built up in a similar manner to the VLDL and LDL particles which are to be found in the plasma.
These particles can be detected using an immunoassay for human LDL. This immunoassay is carried out using antibodies which have been induced against human LDL in rabbits under standard conditions. The anti-LDL antibodies (rabbit anti-LDL Ab) were purified by affinity chromatography on an immunosorbent using human LDL. […] The immune complex located on the plastic surface is detected using monoclonal antibodies which have been induced against human LDL and purified according to standard conditions. […] After acidification of the reaction mixture with H2SO4, the specific light absorption at 450 nm is determined, which is a measure of the amount of ApoB-100-associated particles which have been secreted into the culture supernatant by the HepG2 cells. […]

IC50 [2] [nM] | SMILES | ED50 [1] [mg/kg]
– | Cc1cc(C)c2c3c(n(Cc4ccc(C(C(=O)N[C@@H](CO)c5ccccc5)C5CCCC5)cc4)c2n1)CCCC3 (single isomer, unassigned) [Ex. No. 2] | 10 to 15
28 | Cc1cc(C)c2c3c(n(Cc4ccc(C(C(=O)N[C@@H](CO)c5ccccc5)C5CCCC5)cc4)c2n1)CCCC3 (stereo partly drawn) [Ex. No. 1, 2-S— and 2-(R)-2-[4-(2,4Dimethyl-5,6,7,8-tetrahydro-α-carbolin-9-yl)-methyl-phenyl]-2-cyclopentyl-acetic acid N—[(R)-phenylglycinolamide]] | –
